In patent publication US4518611A, “2-Furylbutyrolactone modulation of the immune system in mammals” (priority 1983, dated 1985):
Values joined by “and” are separate entries in the source; they are usually repeats but may differ in a detail not shown here. Identical values can stand only once. “Also recorded” adds a separate entry of the source. Like-named read-outs stand apart in the source and are kept apart here.

Assays:
spleen lymphocytes [1] = test: Lymphocyte stimulation assay after in vivo treatment, C57BL/6 mice; conditions: for effect on mitogen response (in words): PHA and Con-A
Experimental: (§1) The purpose of this assay is to challenge lymphocytes in microcultures with one or more polyclonal mitogens at concentrations that will induce mitogenesis within 72 hours of stimulation.
(§2) In the mouse model, spleens are removed from different strains of mice and the spleen cells are teased free and suspended in RPMI-1640 tissue culture medium at a concentration of usually […]. These cells are dispensed at a concentration of 5.0×10^5 cells per microculture well in a 96 well flat bottom 96 well tissue culture plate. All testing of the compounds of this invention or mitogens are done in replicates of 10. The cells are then treated with PHA, Con-A, specific antigens, or buffer only. If in vitro testing is done, varying concentrations of the compounds of this invention or buffer only are added to the cells as well. After treatment with the mitogens and/or compounds of this invention, the cells are incubated for 72 hours. The response of these cells to mitogens and/or the compounds of this invention is assessed using ^14 C-thymidine labeling on the fourth day at a concentration of 0.01 μCi/well. The labeled cells are harvested using a lymphocyte harvestor and placed onto fibrous paper discs. A scintillation cocktail is added to vials containing the discs and the results are obtained using a LKB-liquid scintillation counter (Model 1216/Rackbeta II). The data is expressed as a ratio of the cpm of the mitogen stimulated group to the control (nonmitogen) treated group=lymphocyte stimulation index (LSI).
(§3) The lymphocyte stimulation assay may be performed directly on spleen cells obtained from various strains of mice not treated with the compounds of this invention or on lymphocytes obtained from human […]. […] Alternatively, the mice may be treated in vivo with the compounds of this invention by intraperitoneal multi-dose schedules, followed by sacrifice and harvesting spleen lymphocytes. These cells are then tested for their response to polyclonal mitogens or specific antigens used to immunize the mice. In this system however, no additional compound is added to the in vitro lymphocyte stimulation assay system.
Two strains of mice, C57BL/6 and BDF1 are treated for seven days with i.p. administration of either 25, 50, 100, 200, or 400 mg/kg of Cpd. 1 or just buffer. This is followed on the eighth day by a lymphocyte stimulation assay.
A comparison is made of the lymphocyte response of C57BL/6 mice treated 4 days with i.p. administration of either 50, 100, 200, 400 or 800 mg/kg of Cpd. 1, 50, 100, 200, 400 or 800 mg/kg of ascorbic acid (AA), or just buffer. This is followed on the fifth day by a lymphocyte stimulation assay.
(§4) Two strains of mice, C57BL/6 and BALB/c, are treated 4 days with i.p. administration of either 50, 100, 200, or 400 mg/kg of Cpd. 1, or just buffer. This is followed on the fifth day by a lymphocyte stimulation assay.
C57BL/6 mice were treated with four daily i.p. doses of either 50, 100, 200, or 400 mg/kg of Cpd. 1 or just buffer. On the fifth day a lymphocyte stimulation assay was performed.
Mice of the C57BL/6 strain were tested with i.p. administration of either 100, 200, 400 or 600 mg/kg of Cpd. 1 or just buffer. This was followed by removal of spleens and treatment of lymphocytes therein with mitogens PHA and Con-A.
The compound of Example 2, Cpd. 2, was tested in vivo by using C57BL/6 mice and treating them with […] or just buffer for four consecutive days by the i.p. route. On the fifth day a lymphocyte stimulation assay was performed.

spleen lymphocytes [2] = conditions: 4 days
Experimental: as §1, §2, §3, §4

spleen lymphocytes [3] = conditions: for Lymphocyte Stimulation Index, Control (no mitogen): 100 mg/kg i.p.; for effect on mitogen response (in words): 100 mg/kg
Experimental: as §1, §2, §3
Three month old mice of the SJL/J strain, which are T-cell deficient, are treated with i.p. administration of 100, 200, or 400 mg/kg of Cpd. 1 or just buffer for four days. This is followed by a lymphocyte stimulation assay.
An in vivo lymphocyte stimulation assay was performed on SJL/J mice of different ages, either 2, 5, or 10 months. The mice received i.p. injections of either 100 mg/kg of Cpd. 1 or just buffer.

spleen lymphocytes [4] = conditions: for stimulation of DNA synthesis (in words): BSA
Text: The effect of the compounds of this invention on the immune response to specific antigens involves immunization of mice with specific antigens such as bovine serum albumin (BSA) or keyhole limpet hemocyanin (KLH). Following immunization, it is possible to assess the cell-mediated or humoral (antibody) immune response to these antigens by various methods:
(1) Lymphocyte stimulation assays can be performed using varying concentrations of the specific antigens as mitogens in the lymphocyte stimulation microculture system described above. The only difference is that the incubation period is extended to five days instead of three as for the polyclonal mitogens.
Mice of the C57BL/6 strain are given i.p. injections of either 50, 100, 200 or 400 mg/kg of Cpd. 1 or buffer for twelve days (days 1-12). An antigen, bovine serum albumin (BSA), is administered intraperitoneally with Freund's Complete Adjuvant (FCA) on days 1, 7 and 14. Blood samples are taken for assay of the antibody response on days 0, 5, 13, and 19.

[5] = 100 mg/kg i.p., five day administration
[6] = 200 mg/kg i.p., five day administration
[7] = 400 mg/kg i.p., five day administration
[8] = 600 mg/kg i.p., five day administration

Cc1ccc(C2(O)C(=O)OC3C(O)COC32O)o1.Cc1ccc(C2(O)C(=O)OC3C(O)COC32O)o1.O=C1CCC(=O)O1 (centres unmarked) [Cpd. 1, 2-furylbutyrolactone:succinic anhydride]
Lymphocyte Stimulation Index, PHA (spleen lymphocytes [1]; 50 mg/kg i.p., 4 days): 13.6 and 17.0
Lymphocyte Stimulation Index, Con-A (spleen lymphocytes [1]; 50 mg/kg i.p., 7 days): 26.0
Lymphocyte Stimulation Index, Control (no mitogen) (spleen lymphocytes [1]; 50 mg/kg i.p., 7 days): 1.0
Lymphocyte Stimulation Index, Con-A (spleen lymphocytes [1]; 100 mg/kg i.p., 7 days): 40.0
Lymphocyte Stimulation Index, Control (no mitogen) (spleen lymphocytes [1]; 100 mg/kg i.p., 7 days): 1.3
Lymphocyte Stimulation Index, PHA (spleen lymphocytes [1]; 100 mg/kg i.p., 7 days): 17.7
Lymphocyte Stimulation Index, Con-A (spleen lymphocytes [1]; [5]): 43.9
Lymphocyte Stimulation Index, Control (no mitogen) (spleen lymphocytes [1]; [5]): .80
Lymphocyte Stimulation Index, PHA (spleen lymphocytes [1]; [5]): 51.1
Lymphocyte Stimulation Index, PHA (spleen lymphocytes [1]; 200 mg/kg i.p., 4 days): 42.8 and 25.2 and 23.2
Lymphocyte Stimulation Index, Con-A (spleen lymphocytes [1]; 200 mg/kg i.p., 7 days): 34.0
Lymphocyte Stimulation Index, Control (no mitogen) (spleen lymphocytes [1]; 200 mg/kg i.p., 7 days): 1.0
Lymphocyte Stimulation Index, PHA (spleen lymphocytes [1]; 200 mg/kg i.p., 7 days): 21.3
Lymphocyte Stimulation Index, Con-A (spleen lymphocytes [1]; [6]): 36.6
Lymphocyte Stimulation Index, Control (no mitogen) (spleen lymphocytes [1]; [6]): .62
Lymphocyte Stimulation Index, PHA (spleen lymphocytes [1]; [6]): 48.2
Lymphocyte Stimulation Index, Con-A (spleen lymphocytes [1]; 400 mg/kg i.p., 4 days): 40.0 and 30.9 and 26.4
Lymphocyte Stimulation Index, Con-A (spleen lymphocytes [1]; 400 mg/kg i.p., 7 days): 20.7
Lymphocyte Stimulation Index, Control (no mitogen) (spleen lymphocytes [1]; 400 mg/kg i.p., 7 days): 1.0
Lymphocyte Stimulation Index, PHA (spleen lymphocytes [1]; 400 mg/kg i.p., 7 days): 3.2
Lymphocyte Stimulation Index, Con-A (spleen lymphocytes [1]; [7]): 42.4
Lymphocyte Stimulation Index, Control (no mitogen) (spleen lymphocytes [1]; [7]): .49
Lymphocyte Stimulation Index, PHA (spleen lymphocytes [1]; [7]): 44.9
Lymphocyte Stimulation Index, Con-A (spleen lymphocytes [1]; [8]): 26.5
Lymphocyte Stimulation Index, Control (no mitogen) (spleen lymphocytes [1]; [8]): 1.7
Lymphocyte Stimulation Index, PHA (spleen lymphocytes [1]; [8]): 17.6
evidence of toxicity (spleen lymphocytes [1]; 600 mg/kg, five day administration): no evidence of toxicity
Lymphocyte Stimulation Index, Con-A (spleen lymphocytes [1]; 800 mg/kg i.p., 4 days): .612
Lymphocyte Stimulation Index, Control (no mitogen) (spleen lymphocytes [1]; 800 mg/kg i.p., 4 days): .31
Lymphocyte Stimulation Index, PHA (spleen lymphocytes [1]; 800 mg/kg i.p., 4 days): .408
effect on Con-A response (in words) (spleen lymphocytes [1]; i.p., 4 days, Con-A): doses ranging from 50 to 200 mg/kg have a significant stimulatory effect; also recorded: doses ranging from 400 to 800 mg/kg have a significant anti-proliferative effect
effect on PHA response (in words) (spleen lymphocytes [1]; i.p., 4 days, PHA): doses of 100 and 200 mg/kg of Cpd. 1 tend to stimulate lymphocyte DNA synthesis; also recorded: Doses ranging from 400 to 800 suppress DNA synthesis of spleen lymphocytes; also recorded: a decrease in the response to PHA at the 400 mg/kg dose when compared to the response at the 200 mg/kg dose
effect on mitogen response (in words) (spleen lymphocytes [1]; i.p., 7 days): strong suppression of the PHA response in the C57BL/6 mice; also recorded: a suppression of the Con-A response in C57BL/6 mice when compared to the 200 mg/kg dose; also recorded: at a dose of 200 mg/kg in C57BL/6 mice; also recorded: in the C57BL/6 strain, it is increased at doses of 50, 100 and 200 mg/kg
effect on mitogen response (in words) (spleen lymphocytes [1]; i.p., five day administration): Doses ranging from 100 to 400 mg/kg of Cpd. 1 caused significant stimulation of both the Con-A and PHA treated lymphocytes; also recorded: The high dose, 600 mg/kg, caused less stimulation than the 100 to 400 mg/kg doses and gave levels comparable to controls
effect on mitogen response (in words) (spleen lymphocytes [1]; i.p., four daily doses): Stimulation of the response to polyclonal mitogens at doses of Cpd. 1 from 50-400 mg/kg with a maximum response achieved between doses of 100-200 mg/kg
Lymphocyte Stimulation Index, Con-A (spleen lymphocytes [2]; 50 mg/kg i.p.): 20.5
Lymphocyte Stimulation Index, Control (no mitogen) (spleen lymphocytes [2]; 50 mg/kg i.p.): 1.4
Lymphocyte Stimulation Index, PHA (spleen lymphocytes [2]; 50 mg/kg i.p.): 6.44
Lymphocyte Stimulation Index, Con-A (spleen lymphocytes [2]; 100 mg/kg i.p.): 21.8
Lymphocyte Stimulation Index, Control (no mitogen) (spleen lymphocytes [2]; 100 mg/kg i.p.): 1.0
Lymphocyte Stimulation Index, PHA (spleen lymphocytes [2]; 100 mg/kg i.p.): 5.24
Lymphocyte Stimulation Index, Con-A (spleen lymphocytes [2]; 200 mg/kg i.p.): 20.5
Lymphocyte Stimulation Index, Control (no mitogen) (spleen lymphocytes [2]; 200 mg/kg i.p.): .76
Lymphocyte Stimulation Index, Con-A (spleen lymphocytes [2]; 400 mg/kg i.p.): 18.7
Lymphocyte Stimulation Index, Control (no mitogen) (spleen lymphocytes [2]; 400 mg/kg i.p.): .90
Lymphocyte Stimulation Index, PHA (spleen lymphocytes [2]; 400 mg/kg i.p.): 6.71
Lymphocyte Stimulation Index, Control (no mitogen) (spleen lymphocytes [3]; age 2 months): 2.3
Lymphocyte Stimulation Index, Control (no mitogen) (spleen lymphocytes [3]; age 5 months): 1.9
Lymphocyte Stimulation Index, Control (no mitogen) (spleen lymphocytes [3]; age 10 months): 2.1
effect on mitogen response (in words) (spleen lymphocytes [3]; age 2 months): decreased PHA versus increased Con-A response
effect on mitogen response (in words) (spleen lymphocytes [3]; age 5 months): depressed mitogenesis response to both PHA and Con-A
effect on mitogen response (in words) (spleen lymphocytes [3]; age 10 months): significant stimulation of both the PHA and Con-A mitogenic response
Lymphocyte Stimulation Index, Con-A (spleen lymphocytes [3]; 400 mg/kg i.p., four days, three month old): 3.30
Lymphocyte Stimulation Index (spleen lymphocytes [4]; 50 mg/kg, BSA 0 μg/well, Day 19): .26
stimulation of DNA synthesis (in words) (spleen lymphocytes [4]; 50 mg/kg, day 19): This effect has waned by day 19
Lymphocyte Stimulation Index (spleen lymphocytes [4]; 100 mg/kg, BSA 0 μg/well, Day 19): 4.1
Lymphocyte Stimulation Index (spleen lymphocytes [4]; 100 mg/kg, BSA 0.01 μg/well, Day 13): 9.8
Lymphocyte Stimulation Index (spleen lymphocytes [4]; 100 mg/kg, BSA 1.0 μg/well, Day 19): .26
Lymphocyte Stimulation Index (spleen lymphocytes [4]; 200 mg/kg, BSA 0 μg/well, Day 19): 0.42
Lymphocyte Stimulation Index (spleen lymphocytes [4]; 200 mg/kg, BSA 1 μg/well, Day 13): 14.0
Lymphocyte Stimulation Index (spleen lymphocytes [4]; 400 mg/kg, BSA 0 μg/well, Day 19): 5.0
stimulation of DNA synthesis (in words) (spleen lymphocytes [4]; day 13): Only the 50 mg/kg dose shows significant stimulation of DNA synthesis on day 13 compared to controls
